Measured values: paper PMC2648976 (Biochemistry, 2008)
Entries after “also recorded” stand apart in the source; their conditions may differ. Where a SMILES comes first, the peptide text is derived from it. The star is where a group is joined. AMC = Cc1cc(=O)oc2cc(N*)ccc12

What was measured:
[1] = molecular target: T1, WNV NS2B-NS3 protease (West Nile virus, UniProt Q9Q6P4); experiment: NS2B-NS3pro kinetic assay, cleavage of fluorophore-linked; format: biochemical; conditions: for substrate inhibition (reaction mechanism): high substrate concentrations
T1 sequence (Q9Q6P4 1428-1467 limits assumed, looked up): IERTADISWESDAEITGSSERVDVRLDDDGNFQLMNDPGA
T1 sequence (Q9Q6P4 1506-1683 limits assumed, looked up): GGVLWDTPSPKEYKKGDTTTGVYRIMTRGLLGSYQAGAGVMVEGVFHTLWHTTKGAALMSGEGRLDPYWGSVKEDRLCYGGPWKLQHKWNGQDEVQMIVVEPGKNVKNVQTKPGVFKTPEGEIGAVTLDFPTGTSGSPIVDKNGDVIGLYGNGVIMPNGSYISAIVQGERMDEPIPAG

[2] = molecular target: T1, WNV NS2B-NS3 protease; experiment: Inhibition of NS2B-NS3pro by product-analog peptides; format: biochemical; conditions: for Kd (substrate) compared with Ki1 (inhibitor) / difference between Kd2 (substrate) and Ki2 (inhibitor): mixed inhibitor-substrate inhibition model
[3] = 200 mM Tris pH 9.0, 20% glycerol

Compound: CC(=O)N[C@@H](CC(=O)O)C(=O)N[C@@H](Cc1ccccc1)C(=O)N[C@@H](C)C(=O)N[C@@H](CO)C(=O)NCC(=O)N[C@@H](CCCCN)C(=O)N[C@@H](CCCNC(=N)N)C(=O)Nc1ccc2c(C)cc(=O)oc2c1 [Ac-DFASGKR-AMC, Ac-Asp-Phe-Ala-Ser-Gly-Lys-Arg-AMC] (Ac-DFASGKR-{AMC})
- substrate inhibition (reaction mechanism) [1, 3]: substrate inhibition was also observed with the longer substrate (Figure 2b), though it was observed at higher substrate concentrations compared to the tripeptide substrates; also recorded: substrate inhibition model
- substrate inhibition (reaction mechanism) ([1]; 200 mM Tris pH 9.0, 20% glycerol, listed as Ac-Asp-Phe-Ala-Ser-Gly-Lys-Arg-AMC): demonstrated substrate inhibition

Compound: CC(=O)NCC(=O)N[C@@H](CCCNC(=N)N)C(=O)N[C@@H](CCCNC(=N)N)C(N)=O [Ac-GRR-NH2]
- Kd (substrate) compared with Ki1 (inhibitor) [2]: similar
- difference between Kd2 (substrate) and Ki2 (inhibitor) [2]: ~ 2 -fold
- Ki3 (interaction with substrate-inhibited enzyme-substrate complex) ([2]; model with and without this interaction similar): large Ki3 which did not play a substantial role in the overall inhibition

Compound: Cc1cc(=O)oc2cc(NC(=O)[C@H](CCCNC(=N)N)NC(=O)[C@H](CCCNC(=N)N)NC(=O)CNC(=O)OC(C)(C)C)ccc12 [Boc-GRR-AMC, Boc-Gly-Arg-Arg-AMC]
- NS2B-NS3pro activity against substrate [1, 3]: clearly active
- relative binding (Kd) ([1]; Boc-GRR-AMC relative to Ac-DFASGKR-AMC): tighter binding (lower Kd)
- relative extent of substrate inhibition ([1]; at high substrate concentrations): more pronounced with Boc-GRR-AMC than with Boc-GKR-AMC (data not shown) or Ac-DFASGKR-AMC
- substrate inhibition (reaction mechanism) [1, 3]: initial reaction velocities reached a peak and then decreased with increasing substrate concentration; also recorded: substrate inhibition model
- substrate inhibition (reaction mechanism) ([1]; 200 mM Tris pH 9.0, 20% glycerol, listed as Boc-Gly-Arg-Arg-AMC): demonstrated substrate inhibition

Compound: Ac-DFASGKR
- Kd (substrate) compared with Ki1 (inhibitor) [2]: very similar
- difference between Kd2 (substrate) and Ki2 (inhibitor) [2]: ~ 2 -fold
- mechanism of inhibition ([2]; model discrimination analysis with Dynafit): mixed inhibitor-substrate inhibition model; also recorded: mixed non-competitive mechanism (with both competitive and uncompetitive interactions)
